Experimental findings from patent publication US20230340012A1, “NATURAL AND SYNTHETIC COMPOUNDS FOR TREATING CANCER AND OTHER DISEASES” (PACIFIC ARROW LIMITED, priority 2009, published 2023) are described below.

The series concerns cancer cells. Put plainly: MTT cytotoxic assay of esterification products (Cytotoxicity activity). The settings on record: MTT cytotoxic assay, isolated esterification products of E4A. In kind it is cell-based, human. The text has this:
The peaks, fractions and compounds are selected according to the activities of times studies and the changes of peaks. Selecting the HPLC fractions for isolation is according to the cytotoxic activity of the reaction product obtained at a specific time. The compounds having strong to weak activities are selected and isolated. Selecting the HPLC fractions for isolation may be according to the cytotoxic activity of times studies and the change of peaks. The anti-cancer activities are the MTT studies of bone (U2OS), lung (H460), bladder (HTB-9), ovary (ES2), colon (HCT116), pancreas (Capan), ovary(OVCAR3), prostate (DU145), skin (SK-Mel-5), mouth (KB), kidney (A498), breast (MCF-7), liver (HepG2), brain (T98G), leukemia (K562), cervix (HeLa).
Esterification of compound (A), (B), (C), (D1), (D2), (E), (F), (G), (H1), (H2), E4A, E4A2Y, (P1), P(2), terpene, isoprene, triterpenes, hydroxylated triterpenes, with acyl halide, wherein the halide comprise chloride, bromide, fluoride and iodide, wherein the acyl halide comprise acyl chloride, wherein acyl chloride comprise tigloyl chloride, angeloyl chloride, acetyl chloride, crotonoyl chloride, 3,3-Dimethylacryloyl chloride, senecioyl chloride, cinnamoyl chloride, pentenoyl chloride, hexanoyl chloride, benzoyl chloride, ethylbutyryl chloride, propionyl chloride, 2-propenoyl chloride, isobutyryl chloride, butyryl chloride, (2E)-2-pentenoyl chloride, 4-Pentenoyl chloride, 5-hexenoyl chloride, heptanoyl chloride, octanoyl chloride, nonanoyl chloride, decanoyl chloride, Lauroyl chloride, myristoyl chloride, oleoyl chloride. The compounds vary in composition when the time or temperature of the reaction is changed. The peaks, fractions and compounds are selected according to the activities of times studies and the changes of peaks. The compounds having strong to weak activities are selected and isolated. The anti-cancer activities (Cytotoxic Assay) are the MTT studies of bone (U2OS), lung (H460), bladder(HTB-9), ovary (ES2), colon (HCT116), pancreas (Capan), ovary(OVCAR3), prostate (DU145), skin (SK-Mel-5), mouth (KB), kidney (A498), breast (MCF-7), liver (HepG2), brain (T98G), leukemia (K562), cervix (HeLa). The active esterification products are purified with HPLC. The reaction product of mixtures and individual compounds are tested with MTT Cytotoxic Assay. Details of method are in Experiment 3 of the present application. A second esterification of compound can be selected from the above experiment results to produce new active compounds. A partial esterification compound is selected from the above experiments to perform a second or repeated with a third esterification with different acyl chloride in order to produce new active compounds with the experiments in the present application.
Method: 40 mg of triterpene core (fraction IV) was dissolved in 1 ml pyridine in a 50 ml tube. Reaction is started by adding 0.2 ml of acyl chloride (Tigloyl chloride, angeloyl chloride, Acetyl chloride, Crotonoyl chloride, 3,3-Dimethylacryloyl chloride(senecioyl chloride), Cinnamoyl chloride, Pentenoyl chloride, Hexanoyl chloride, benzoyl chloride or Ethylbutyryl chloride). The mixture is stirred for 5 sec, 1 min, 2 min, 5 min, 10 min, 30 min, 1 hr, 2 hr, 18 hr, 2 days or 3 days at 0° C., 25° C. or 75° C. temperature. At the end of reaction, 5 ml of 2N HCl or 1 M NaHCO3 is added to the reaction mixture. The solution is then extracted 3 times with 10 ml of ethyl acetate which is then evaporated under vacuum and at 45C and lyophilization. The reaction product is dissolved in 80% acetonitrile - 0.005% Trifluoroacetic acid or DMSO; and was separated with HPLC. Selecting the HPLC fractions for isolation is according to the cytotoxic activity of the reaction product obtained at a specific reaction time. The active esterification products are purified with HPLC. The reaction product of mixtures and individual compounds are tested with MTT cytotoxic assay. Structures are determined with NMR. […]
A general note: Tetrazolium assays rely on reduction of a dye to a coloured formazan, in cell work by metabolically active cells.

With `CC(C)=CC(=O)OCC1(C)C(O)CCC2(C)C1CCC1(C)C2CC=C2C3CC(C)(C)C(O)C(O)C3(COC(=O)C=C(C)C)C(O)CC21C` (stereo not drawn) [Compound B3], the Cytotoxicity activity entry is reported as “strong”.

`CC(C)=CC(=O)OCC1(C)C(O)CCC2(C)C1CCC1(C)C2CC=C2C3CC(C)(C)C(OC(=O)C=C(C)C)C(O)C3(COC(=O)C=C(C)C)C(O)CC21C` (stereo not drawn) [Compound B4]: the Cytotoxicity activity entry was “moderate”.

As to `CC(C)=CC(=O)OCC1(C)C(O)CCC2(C)C1CCC1(C)C2CC=C2C3CC(C)(C)C(O)C(OC(=O)C=C(C)C)C3(COC(=O)C=C(C)C)C(O)CC21C` (stereo not drawn) [Compound B5], the Cytotoxicity activity entry is listed as “moderate”.

Take `CC(C)=CC(=O)OCC1(C)C(OC(=O)C=C(C)C)CCC2(C)C1CCC1(C)C2CC=C2C3CC(C)(C)C(O)C(O)C3(COC(=O)C=C(C)C)C(O)CC21C` (stereo not drawn) [Compound B6]: the Cytotoxicity activity result is on record as “moderate”.

As to `CC(C)=CC(=O)OCC1(C)C(O)CCC2(C)C1CCC1(C)C2CC=C2C3CC(C)(C)C(O)C(O)C3(COC(=O)C=C(C)C)C(OC(=O)C=C(C)C)CC21C` (stereo not drawn) [Compound B7], the Cytotoxicity activity entry is “moderate”.

Regarding `CC(C)=CC(=O)OCC1(C)C(O)CCC2(C)C1CCC1(C)C2CC=C2C3CC(C)(C)C(OC(=O)C=C(C)C)C(OC(=O)C=C(C)C)C3(COC(=O)C=C(C)C)C(O)CC21C` (stereo not drawn) [Compound B8], the Cytotoxicity activity result is “weak”.

Consider `CC(C)=CC(=O)OCC1(C)C(OC(=O)C=C(C)C)CCC2(C)C1CCC1(C)C2CC=C2C3CC(C)(C)C(O)C(OC(=O)C=C(C)C)C3(COC(=O)C=C(C)C)C(O)CC21C` (stereo not drawn) [Compound B9], for which the Cytotoxicity activity entry is “weak”.

With `CC(C)=CC(=O)OCC1(C)C(OC(=O)C=C(C)C)CCC2(C)C1CCC1(C)C2CC=C2C3CC(C)(C)C(O)C(O)C3(COC(=O)C=C(C)C)C(OC(=O)C=C(C)C)CC21C` (stereo not drawn) [Compound B10], the Cytotoxicity activity entry is “weak”.

With `CC(C)=CC(=O)OCC1(C)C(OC(=O)C=C(C)C)CCC2(C)C1CCC1(C)C2CC=C2C3CC(C)(C)C(OC(=O)C=C(C)C)C(O)C3(COC(=O)C=C(C)C)C(O)CC21C` (stereo not drawn) [Compound B11], the Cytotoxicity activity entry is listed as “weak”.

As for `CC(C)=CC(=O)OCC1(C)C(O)CCC2(C)C1CCC1(C)C2CC=C2C3CC(C)(C)C(O)C(OC(=O)C=C(C)C)C3(COC(=O)C=C(C)C)C(OC(=O)C=C(C)C)CC21C` (stereo not drawn) [Compound B12], the Cytotoxicity activity entry is listed as “weak”.

In the case of `CC(C)=CC(=O)OCC1(C)C(O)CCC2(C)C1CCC1(C)C2CC=C2C3CC(C)(C)C(OC(=O)C=C(C)C)C(O)C3(COC(=O)C=C(C)C)C(OC(=O)C=C(C)C)CC21C` (stereo not drawn) [Compound B13], the Cytotoxicity activity entry is listed as “weak”.

With `CC(C)=CC(=O)OCC1(C)C(OC(=O)C=C(C)C)CCC2(C)C1CCC1(C)C2CC=C2C3CC(C)(C)C(O)C(OC(=O)C=C(C)C)C3(COC(=O)C=C(C)C)C(O)CC21C` (stereo not drawn) [Compound B14], the Cytotoxicity activity entry was “weak”.

Take `CC(C)=CC(=O)OCC1(C)C(OC(=O)C=C(C)C)CCC2(C)C1CCC1(C)C2CC=C2C3CC(C)(C)C(OC(=O)C=C(C)C)C(OC(=O)C=C(C)C)C3(COC(=O)C=C(C)C)C(O)CC21C` (stereo not drawn) [Compound B15]: the Cytotoxicity activity entry is “weak”.

Turning to `CC(C)=CC(=O)OCC1(C)C(O)CCC2(C)C1CCC1(C)C2CC=C2C3CC(C)(C)C(OC(=O)C=C(C)C)C(OC(=O)C=C(C)C)C3(COC(=O)C=C(C)C)C(OC(=O)C=C(C)C)CC21C` (stereo not drawn) [Compound B16], the Cytotoxicity activity entry was “weak”.

Consider `CC(C)=CC(=O)OCC1(C)C(OC(=O)C=C(C)C)CCC2(C)C1CCC1(C)C2CC=C2C3CC(C)(C)C(OC(=O)C=C(C)C)C(O)C3(COC(=O)C=C(C)C)C(OC(=O)C=C(C)C)CC21C` (stereo not drawn) [Compound B17], for which the Cytotoxicity activity entry is recorded as “weak”.

In the case of `CC(C)=CC(=O)OCC1(C)C(OC(=O)C=C(C)C)CCC2(C)C1CCC1(C)C2CC=C2C3CC(C)(C)C(O)C(OC(=O)C=C(C)C)C3(COC(=O)C=C(C)C)C(OC(=O)C=C(C)C)CC21C` (stereo not drawn) [Compound B18], the Cytotoxicity activity result is “weak”.

As for `CC(C)=CC(=O)OCC1(C)C(OC(=O)C=C(C)C)CCC2(C)C1CCC1(C)C2CC=C2C3CC(C)(C)C(OC(=O)C=C(C)C)C(OC(=O)C=C(C)C)C3(COC(=O)C=C(C)C)C(OC(=O)C=C(C)C)CC21C` (stereo not drawn) [Compound B19], the Cytotoxicity activity result is reported as “none”.

Consider `CC(C)=CC(=O)OCC12C(O)CC3(C)C(=CCC4C5(C)CCC(O)C(C)(CO)C5CCC43C)C1CC(C)(C)C(OC(=O)C=C(C)C)C2OC(=O)C=C(C)C` (stereo not drawn) [Compound B20], for which the Cytotoxicity activity entry is reported as “moderate”.

Regarding `CC(C)=CC(=O)OCC1(C)C(O)CCC2(C)C1CCC1(C)C2CC=C2C3CC(C)(C)C(OC(=O)C=C(C)C)C(OC(=O)C=C(C)C)C3(CO)C(O)CC21C` (stereo not drawn) [Compound B21], the Cytotoxicity activity result was “moderate”.

`CC(C)=CC(=O)OC1C(OC(=O)C=C(C)C)C2(CO)C(OC(=O)C=C(C)C)CC3(C)C(=CCC4C5(C)CCC(O)C(C)(CO)C5CCC43C)C2CC1(C)C` (stereo not drawn) [Compound B22]: the Cytotoxicity activity result was “moderate”.

Take `CC(C)=CC(=O)OC1C(OC(=O)C=C(C)C)C2(CO)C(O)CC3(C)C(=CCC4C5(C)CCC(OC(=O)C=C(C)C)C(C)(CO)C5CCC43C)C2CC1(C)C` (stereo not drawn) [Compound B23]: the Cytotoxicity activity result is reported as “moderate”.

For `CC(C)=CC(=O)OC1C(OC(=O)C=C(C)C)C2(CO)C(O)CC3(C)C(=CCC4C5(C)CCC(O)C(C)(CO)C5CCC43C)C2CC1(C)C` (stereo not drawn) [Compound B24], the Cytotoxicity activity entry was “moderate”.

Regarding `CC(C)=CC(=O)OCC12C(O)CC3(C)C(=CCC4C5(C)CCC(O)C(C)(CO)C5CCC43C)C1CC(C)(C)C(OC(=O)C=C(C)C)C2O` (stereo not drawn) [Compound B25], the Cytotoxicity activity entry is reported as “moderate”.

As to `CC(C)=CC(=O)OCC12C(O)CC3(C)C(=CCC4C5(C)CCC(O)C(C)(CO)C5CCC43C)C1CC(C)(C)C(O)C2OC(=O)C=C(C)C` (stereo not drawn) [Compound B26], the Cytotoxicity activity result is on record as “moderate”.

Consider `CC(C)=CC(=O)OCC12C(O)CC3(C)C(=CCC4C5(C)CCC(OC(=O)C=C(C)C)C(C)(CO)C5CCC43C)C1CC(C)(C)C(O)C2O` (stereo not drawn) [Compound B27], for which the Cytotoxicity activity entry is on record as “moderate”.

`CC(C)=CC(=O)OCC12C(OC(=O)C=C(C)C)CC3(C)C(=CCC4C5(C)CCC(O)C(C)(CO)C5CCC43C)C1CC(C)(C)C(O)C2O` (stereo not drawn) [Compound B28]: the Cytotoxicity activity result is reported as “moderate”.

`CC(C)=CC(=O)OCC1(C)C(O)CCC2(C)C1CCC1(C)C2CC=C2C3CC(C)(C)C(OC(=O)C=C(C)C)C(O)C3(CO)C(O)CC21C` (stereo not drawn) [Compound B29]: the Cytotoxicity activity result is on record as “moderate”.

In the case of `CC(C)=CC(=O)OCC1(C)C(O)CCC2(C)C1CCC1(C)C2CC=C2C3CC(C)(C)C(O)C(OC(=O)C=C(C)C)C3(CO)C(O)CC21C` (stereo not drawn) [Compound B30], the Cytotoxicity activity entry is reported as “moderate”.

Regarding `CC(C)=CC(=O)OCC1(C)C(OC(=O)C=C(C)C)CCC2(C)C1CCC1(C)C2CC=C2C3CC(C)(C)C(O)C(O)C3(CO)C(O)CC21C` (stereo not drawn) [Compound B31], the Cytotoxicity activity entry is “moderate”.

For the compound `CC(C)=CC(=O)OCC1(C)C(O)CCC2(C)C1CCC1(C)C2CC=C2C3CC(C)(C)C(O)C(O)C3(CO)C(OC(=O)C=C(C)C)CC21C` (stereo not drawn) [Compound B32], the Cytotoxicity activity entry is “moderate”.

On to `C=CCCC(=O)OCC1(C)C(O)CCC2(C)C1CCC1(C)C2CC=C2C3CC(C)(C)C(O)C(O)C3(CO)C(O)CC21C` (stereo not drawn) [Compound C1], for which the Cytotoxicity activity result is reported as “moderate”.

Take `C=CCCC(=O)OCC12C(O)CC3(C)C(=CCC4C5(C)CCC(O)C(C)(CO)C5CCC43C)C1CC(C)(C)C(O)C2O` (stereo not drawn) [Compound C2]: the Cytotoxicity activity entry is reported as “moderate”.

For the compound `C=CCCC(=O)OCC1(C)C(O)CCC2(C)C1CCC1(C)C2CC=C2C3CC(C)(C)C(O)C(O)C3(COC(=O)CCC=C)C(O)CC21C` (stereo not drawn) [Compound C3], the Cytotoxicity activity entry was “strong”.
